Source: patent publication US11345912B2, “Directed evolution of multivalent glycopeptides that tightly bind to target proteins” (Brandeis University, priority 2013, dated 2022)

Target: 2G12
Test: BioLayer Interferometry (BLI) of 2G12 binding to surface-immobilized synthetic glycopeptide
Conditions: Table 6; evaluated by BLI, material prepared synthetically
Description: Biotinylation of 10F2 glycopeptide and determination of 2G12 binding by BLI (BioLayer Interferometry): 200 μg 10F2 glycopeptide in 5.5 μL water was treated with […] of 50 mM TCEP.HCl/1M Tris-HCl buffer, pH 7.8, under argon, using the same inert gas setup employed in the click procedure. After 4.5 h, the reaction mixture was injected into HPLC (Waters Symmetry, 300 C4, 5 μm, 4.6×250 mm, 1 mL/min, 2-42% over 60 min, retention time 46.8 min).
The 2G12 binding of the resulting biotinylated glycopeptide 3 was determined using a BLItz instrument (Fortebio). Biotin-10F2 was loaded (120 sec) onto a streptavidin biosensor as a 500 nM solution in Buffer 1 (20 mM Tris pH 7.5, 150 mM NaCl, 2 mM MgSO4, 0.20 mg/mL BSA, 0.02% Tween-20). The sensor was washed with Buffer 1 for 60 sec, after which time the net response due to loading was observed as 0.2 nm. The sensor was then equilibrated with Buffer 2 (20 mM Tris pH 7.5, 150 mM NaCl, 2 mM MgSO4, 2.0 mg/mL BSA, 0.1% v/v Tween-20) for 90 sec. 2G12 (prepared in Buffer 2) was associated at several concentrations (0.5, 1, 2, 4, 8, 16, 32 nM, in random order) for 600 sec, followed by dissociation into blank Buffer 2 for 600 sec. […]

Row | Compound | Kd
1 | CC[C@H](C)[C@H](NC(=O)[C@@H](NC(=O)[C@@H](NC(=O)[C@H](Cc1c[nH]cn1)NC(=O)[C@H](CC(N)=O)NC(=O)[C@H](CC(=O)O)NC(=O)[C@H](CCc1cn(C2CCC(OC3O[C@H](CO[C@H]4O[C@H](CO[C@H]5O[C@H](CO)[C@@H](O)[C@H](O)[C@@H]5O[C@H]5O[C@H](CO)[C@@H](O)[C@H](O)[C@@H]5O)[C@@H](O)[C@H](O[C@H]5O[C@H](CO)[C@@H](O)[C@H](O)[C@@H]5O[C@H]5O[C@H](CO)[C@@H](O)[C@H](O)[C@@H]5O)[C@@H]4O)[C@@H](O)[C@H](O[C@H]4O[C@H](CO)[C@@H](O)[C@H](O)[C@@H]4O[C@H]4O[C@H](CO)[C@@H](O)[C@H](O)[C@@H]4O[C@H]4O[C@H](CO)[C@@H](O)[C@H](O)[C@@H]4O)[C@@H]3O)CC2)nn1)NC(=O)[C@@H](NC(=O)[C@H](CCCCN)NC(=O)[C@H](CCC(=O)O)NC(=O)[C@H](CCCNC(=N)N)NC(=O)[C@H](CCCCN)NC(=O)[C@H](C)NC(=O)[C@H](CC(N)=O)NC(=O)[C@@H](NC(=O)[C@H](CCCCN)NC(=O)[C@@H](NC(=O)[C@H](C)NC(=O)[C@H](CCc1cn(C2CCC(OC3O[C@H](CO[C@H]4O[C@H](CO[C@H]5O[C@H](CO)[C@@H](O)[C@H](O)[C@@H]5O[C@H]5O[C@H](CO)[C@@H](O)[C@H](O)[C@@H]5O)[C@@H](O)[C@H](O[C@H]5O[C@H](CO)[C@@H](O)[C@H](O)[C@@H]5O[C@H]5O[C@H](CO)[C@@H](O)[C@H](O)[C@@H]5O)[C@@H]4O)[C@@H](O)[C@H](O[C@H]4O[C@H](CO)[C@@H](O)[C@H](O)[C@@H]4O[C@H]4O[C@H](CO)[C@@H](O)[C@H](O)[C@@H]4O[C@H]4O[C@H](CO)[C@@H](O)[C@H](O)[C@@H]4O)[C@@H]3O)CC2)nn1)NC=O)[C@@H](C)O)[C@@H](C)O)[C@@H](C)O)C(C)C)[C@@H](C)O)C(=O)N[C@@H](CCc1cn(C2CCC(OC3O[C@H](CO[C@H]4O[C@H](CO[C@H]5O[C@H](CO)[C@@H](O)[C@H](O)[C@@H]5O[C@H]5O[C@H](CO)[C@@H](O)[C@H](O)[C@@H]5O)[C@@H](O)[C@H](O[C@H]5O[C@H](CO)[C@@H](O)[C@H](O)[C@@H]5O[C@H]5O[C@H](CO)[C@@H](O)[C@H](O)[C@@H]5O)[C@@H]4O)[C@@H](O)[C@H](O[C@H]4O[C@H](CO)[C@@H](O)[C@H](O)[C@@H]4O[C@H]4O[C@H](CO)[C@@H](O)[C@H](O)[C@@H]4O[C@H]4O[C@H](CO)[C@@H](O)[C@H](O)[C@@H]4O)[C@@H]3O)CC2)nn1)C(=O)N[C@@H](CCCNC(=N)N)C(=O)N[C@@H](CO)C(=O)N[C@H](C(=O)N1CCC[C@H]1C(=O)N[C@@H](Cc1c[nH]c2ccccc12)C(=O)N[C@@H](Cc1ccc(O)cc1)C(=O)N[C@H](C(=O)N[C@@H](Cc1ccc(O)cc1)C(=O)N[C@@H](CCCNC(=N)N)C(=O)N[C@@H](Cc1c[nH]c2ccccc12)C(=O)N[C@@H](CC(C)C)C(=O)N1CCC[C@H]1C(=O)N[C@@H](CC(N)=O)C(=O)NCC(=O)N[C@@H](CO)C(=O)NCC(=O)N[C@@H](CO)C(=O)NCC(=O)N[C@@H](CSC1CC(=O)N(CCC(=O)NCCOCCOCCNC(=O)CCCC[C@@H]2SC[C@@H]3NC(=O)N[C@@H]32)C1=O)C(=O)N[C@@H](C)C(=O)O)[C@@H](C)O)[C@@H](C)CC (some centres unmarked) [Clone 10V1-C7A, XATKTNAKREKTXDNHVTIXRSIPWYTYRWLPN] | 4.4 nM
2 | CC[C@H](C)[C@H](NC(=O)[C@@H](NC(=O)[C@@H](NC(=O)[C@H](Cc1c[nH]cn1)NC(=O)[C@H](CC(N)=O)NC(=O)[C@H](CC(=O)O)NC(=O)[C@H](CCc1cn(C2CCC(OC3O[C@H](CO[C@H]4O[C@H](CO[C@H]5O[C@H](CO)[C@@H](O)[C@H](O)[C@@H]5O[C@H]5O[C@H](CO)[C@@H](O)[C@H](O)[C@@H]5O)[C@@H](O)[C@H](O[C@H]5O[C@H](CO)[C@@H](O)[C@H](O)[C@@H]5O[C@H]5O[C@H](CO)[C@@H](O)[C@H](O)[C@@H]5O)[C@@H]4O)[C@@H](O)[C@H](O[C@H]4O[C@H](CO)[C@@H](O)[C@H](O)[C@@H]4O[C@H]4O[C@H](CO)[C@@H](O)[C@H](O)[C@@H]4O[C@H]4O[C@H](CO)[C@@H](O)[C@H](O)[C@@H]4O)[C@@H]3O)CC2)nn1)NC(=O)[C@@H](NC(=O)[C@H](CCCCN)NC(=O)[C@H](CCC(=O)O)NC(=O)[C@H](CCCNC(=N)N)NC(=O)[C@H](CCCCN)NC(=O)[C@H](CO)NC(=O)[C@H](CC(N)=O)NC(=O)[C@@H](NC(=O)[C@H](CCCCN)NC(=O)[C@@H](NC(=O)[C@H](C)NC(=O)[C@H](CCc1cn(C2CCC(OC3O[C@H](CO[C@H]4O[C@H](CO[C@H]5O[C@H](CO)[C@@H](O)[C@H](O)[C@@H]5O[C@H]5O[C@H](CO)[C@@H](O)[C@H](O)[C@@H]5O)[C@@H](O)[C@H](O[C@H]5O[C@H](CO)[C@@H](O)[C@H](O)[C@@H]5O[C@H]5O[C@H](CO)[C@@H](O)[C@H](O)[C@@H]5O)[C@@H]4O)[C@@H](O)[C@H](O[C@H]4O[C@H](CO)[C@@H](O)[C@H](O)[C@@H]4O[C@H]4O[C@H](CO)[C@@H](O)[C@H](O)[C@@H]4O[C@H]4O[C@H](CO)[C@@H](O)[C@H](O)[C@@H]4O)[C@@H]3O)CC2)nn1)NC=O)[C@@H](C)O)[C@@H](C)O)[C@@H](C)O)C(C)C)[C@@H](C)O)C(=O)N[C@@H](CCc1cn(C2CCC(OC3O[C@H](CO[C@H]4O[C@H](CO[C@H]5O[C@H](CO)[C@@H](O)[C@H](O)[C@@H]5O[C@H]5O[C@H](CO)[C@@H](O)[C@H](O)[C@@H]5O)[C@@H](O)[C@H](O[C@H]5O[C@H](CO)[C@@H](O)[C@H](O)[C@@H]5O[C@H]5O[C@H](CO)[C@@H](O)[C@H](O)[C@@H]5O)[C@@H]4O)[C@@H](O)[C@H](O[C@H]4O[C@H](CO)[C@@H](O)[C@H](O)[C@@H]4O[C@H]4O[C@H](CO)[C@@H](O)[C@H](O)[C@@H]4O[C@H]4O[C@H](CO)[C@@H](O)[C@H](O)[C@@H]4O)[C@@H]3O)CC2)nn1)C(=O)N[C@@H](CCCNC(=N)N)C(=O)N[C@@H](CO)C(=O)N[C@H](C(=O)N1CCC[C@H]1C(=O)N[C@@H](Cc1c[nH]c2ccccc12)C(=O)N[C@@H](Cc1ccc(O)cc1)C(=O)N[C@H](C(=O)N[C@@H](Cc1ccc(O)cc1)C(=O)N[C@@H](CCCNC(=N)N)C(=O)N[C@@H](Cc1c[nH]c2ccccc12)C(=O)N[C@@H](CC(C)C)C(=O)N1CCC[C@H]1C(=O)N[C@@H](CC(N)=O)C(=O)NCC(=O)N[C@@H](CO)C(=O)NCC(=O)N[C@@H](CO)C(=O)NCC(=O)N[C@@H](CS)C(=O)N[C@@H](C)C(=O)O)[C@@H](C)O)[C@@H](C)CC (some centres unmarked) [Clone 10V1-C7S, XATKTNSKREKTXDNHVTIXRSIPWYTYRWLPN] | 5.6 nM
